Values after ≈ are worked out from the molar mass of the structure shown. Active and inactive are the calls of the source. The calls are words filed in the database; no cut-off is given here.

Assay [1] deals with T1, Quinolone resistance protein NorA (Staphylococcus aureus) (UniProt P0A0J7).
T1 sequence (whole entry): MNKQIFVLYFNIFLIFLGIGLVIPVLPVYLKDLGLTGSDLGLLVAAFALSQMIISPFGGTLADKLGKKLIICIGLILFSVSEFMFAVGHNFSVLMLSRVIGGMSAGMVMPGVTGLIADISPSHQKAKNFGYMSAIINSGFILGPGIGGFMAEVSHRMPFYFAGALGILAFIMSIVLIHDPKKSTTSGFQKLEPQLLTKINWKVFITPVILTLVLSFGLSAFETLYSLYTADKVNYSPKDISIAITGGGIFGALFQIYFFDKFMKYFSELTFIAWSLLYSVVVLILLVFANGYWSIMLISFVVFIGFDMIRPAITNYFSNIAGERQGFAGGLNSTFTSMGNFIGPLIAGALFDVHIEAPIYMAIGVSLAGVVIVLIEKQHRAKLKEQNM
Kind of assay: Inhibition of NorA efflux pump in Staphylococcus aureus 1199B assessed as reduction in ethidium bromide MIC.

Assay [2] concerns the target T1, Quinolone resistance protein NorA (Staphylococcus aureus). The assay is described as follows: Inhibition of NorA efflux pump in methicillin-resistant Staphylococcus aureus assessed as reduction in methicillin MIC.
Assay [3] relates to Staphylococcus aureus. The assay is described as follows: Antimicrobial activity against Staphylococcus aureus XU212 expressing tetK pump. Type of assay: functional, organism-based.
Assay [4] relates to Staphylococcus aureus. Kind of assay: Antimicrobial activity against Staphylococcus aureus 1199B expressing NorA pump. Type of assay: functional, organism-based.
The next assay concerns Plasmodium falciparum. The assay is described as follows: Antiplasmodial activity against chloroquine-resistant Plasmodium falciparum. Type of assay: functional, organism-based.
Assay [5] relates to Staphylococcus aureus. The assay is described as follows: Antimicrobial activity against Staphylococcus aureus K3092 overexpressing NorA gene. Type of assay: functional.
Assay [6] concerns Staphylococcus aureus. Kind of assay: Antimicrobial activity against NorA deficient Staphylococcus aureus K1758. Type of assay: functional.
Assay [7] addresses T1, Quinolone resistance protein NorA (Staphylococcus aureus). The assay is described as follows: Inhibition of NorA efflux pump in Staphylococcus aureus isolate15 assessed as potentiation of oxacillin MIC.
Assay [8] in a line: Ratio of inhibition of CHO cells to IC50 for chloroquine-resistant Plasmodium falciparum.
Assay [9] deals with T1, Quinolone resistance protein NorA (Staphylococcus aureus). The assay is described as follows: Inhibition of NorA efflux pump in Staphylococcus aureus 1199B assessed as reduction in Norfloxacin MIC at 1 ug/ml.
The target of assay [10] is T2, Quinolone resistance protein NorA (Staphylococcus aureus, UniProt P0A0J7).
T2 sequence (P0A0J7 whole entry): T1 sequence (whole entry)
Kind of assay: Inhibition of NorA efflux pump in Staphylococcus aureus K3092 assessed as inhibition of EtBr efflux.

Assay [11] has as its system Staphylococcus aureus. Kind of assay: Inhibition of MsrA efflux pump in Staphylococcus aureus RN4220 assessed as reduction in erythromycin MIC at 1 ug/ml.
Assay [12] concerns the target T1, Quinolone resistance protein NorA (Staphylococcus aureus). The assay is described as follows: Inhibition of NorA efflux pump in Staphylococcus aureus K3092 assessed as reduction in ethidium bromide MIC.
The subject of assay [13] is Staphylococcus aureus. The assay is described as follows: Antimicrobial activity against Staphylococcus aureus RN4220 expressing MsrA protein. Type of assay: functional, organism-based.
Assay [14] concerns Staphylococcus aureus. The assay is described as follows: Antimicrobial activity against Staphylococcus aureus ATCC 25923. Type of assay: functional.
In assay [15] the test system is Staphylococcus aureus. Kind of assay: Inhibition of tetK efflux pump in Staphylococcus aureus XU212 assessed as reduction in tetracycline MIC at 1 ug/ml.
In assay [16] the test system is Staphylococcus aureus. Kind of assay: Antimicrobial activity against Staphylococcus aureus NCTC 8325-4 expressing NorA gene. Type of assay: functional.
The subject of assay [17] is Staphylococcus aureus. Kind of assay: Antimicrobial activity against totarol-resistant Staphylococcus aureus K3090. Type of assay: functional.

With `CC(C)c1c(O)ccc2c1CC[C@H]1C(C)(C)CCC[C@]21C` [TOTAROL], the result (in assay [1]; in the assay on Staphylococcus aureus [3]; in the assay on Staphylococcus aureus [4]; in assay [12]; with Staphylococcus aureus [13]) was Active. The fold change (FC) in assay [2] stood at 8; in assay [7] it was 50; in assay [9], 4; in the assay with Staphylococcus aureus [11] it was 8; in the assay with Staphylococcus aureus [15], 4. The figures for the IC50 (in the assay with Plasmodium falciparum; in assay [10]) were 4.29 µM and 15 µM, respectively. In addition, the MIC (in general, the lowest concentration that inhibits growth of the organism) against Staphylococcus aureus [5] was 16 µg/mL (≈ 55.9 µM); against Staphylococcus aureus [6], 1.25 µg/mL (≈ 4.36 µM); in the assay with Staphylococcus aureus [14] it was 2 µg/mL (≈ 6.98 µM); with Staphylococcus aureus [16], 2.5 µg/mL (≈ 8.73 µM); with Staphylococcus aureus [17] it was 16 µg/mL (≈ 55.9 µM). For the same compound, the Ratio in [8] was found to be 40.

For the compound `COC(=O)[C@H]1[C@H]2C[C@@H]3c4[nH]c5cc(OC)ccc5c4CCN3C[C@H]2C[C@@H](OC(=O)c2cc(OC)c(OC)c(OC)c2)[C@@H]1OC` [RESERPINE], in [10], the IC50 (commonly the concentration at which inhibition is half-maximal) came out at 8 µM.

Take `CC[n+]1c(-c2ccccc2)c2cc(N)ccc2c2ccc(N)cc21.[Br-]` [HOMIDIUM BROMIDE]: the minimum inhibitory concentration (MIC) in the assay with Staphylococcus aureus [5] came out at 100 µg/mL; against Staphylococcus aureus [6], 0.63 µg/mL; against Staphylococcus aureus [16], 6.25 µg/mL; with Staphylococcus aureus [17] it was 0.63 µg/mL.

For the origin of these results see ChEMBL document CHEMBL1137021, “The phenolic diterpene totarol inhibits multidrug efflux pump activity in Staphylococcus aureus” (Antimicrob Agents Chemother, 2007).
